Results published in patent US20230158136A1 (priority 2021, published 2023).
Where no end group is shown, it is not given here.

Experiment: in vitro
Settings: human, 293T cells

KKALLAHALHLLALLALHLAHALKKA-NH2 [LAH4]
CC50 at 24 h: > 125 µg/mL
